From ChEMBL document CHEMBL5120953, “Novel Macrocyclic 1,3,4-Oxadiazoles as CFTR Modulators for Treating Cystic Fibrosis” (ACS Med Chem Lett, 2022)

assay: Modulation of CFTR F508 deletion/MF mutant in HBE cells assessed as change in short circuit current incubated for 18 to 24 hrs in presence of forskolin and amiloride by voltage-clamp based chamber assay; assay type: cell-based; conditions: Homo sapiens

Compound | EC50
Nc1cc(C(F)(F)F)c2nc1-c1nnc(o1)[C@@](O)(C(F)(F)F)CCCCCC1(CCCCC1)N2 | < 500 nM
Nc1cc(C(F)(F)F)c2nc1-c1nnc(o1)[C@@](O)(C(F)(F)F)CCCCCC1(CCC1)N2 | < 500 nM
Nc1cc(Br)c2nc1-c1nnc(o1)[C@@](O)(C(F)(F)F)CCCCC[C@@H]1CCCN21 | < 500 nM
Nc1cc(S(=O)(=O)c2ccccc2)c2nc1-c1nnc(o1)[C@@](O)(C(F)(F)F)CCCCC[C@@H]1CCCN21 | < 500 nM

Next, values leading:

EC50 | Compound
< 500 nM | Nc1cc(C(F)(F)F)c2nc1-c1nnc(o1)[C@@](O)(C(F)(F)F)CCCCC[C@@H]1CCCN21
< 500 nM | Nc1cc(C(F)(F)F)c2nc1-c1nnc(o1)[C@@](O)(C(F)(F)F)CCCCCC(c1ccccn1)N2 (stereo partly specified)
